Test results published in patent publication US20100108083A1, “USE OF MEANS FOR TRAPPING CO2 IN A FILTER FOR PREVENTING INFLAMMATION, CANCER AND CARDIOVASCULAR DISEASES IN A SUBJECT EXPOSED TO TOBACCO SMOKE” (priority 2007, published 2010).

Experiments:
BALB/c mice [1] = test: Plethysmography (Penh value) of mice breathing air enriched in CO2; type: in vivo
Method: 1/ BALB/c mice were placed in a closed chamber in which the proportion of CO2, at constant proportion of oxygen, was raised artificially to 2 (atmospheric air control), 5, 10 and 15% by injection of CO2 into the chamber every other minute. At each of these concentrations, non-invasive functional testing was carried out on the mice by plethysmography, according to the technique described by Hamelmann et al. (1997) Am J Respir Crit Care Med 156: 766-775). This technique involves assessing the respiratory distress of the mice by determining the Penh (enhanced pause) value.

β-catenin = test: ELISA of β-catenin in the nucleus of pulmonary cells of mice after CO2 inhalation; type: in vivo; conditions: inhaled air with CO2 content above 10%, without decrease in oxygen, versus atmospheric air
Method: (§1) 2/After keeping the mice for 10 minutes in the chambers at the various concentrations of CO2 stated above, the mice were sacrificed (one hour after the start of the experiment) in order to determine the proteins β-catenin and NF-κBp65 in the nucleus of their pulmonary cells.
(§2) These two proteins are recognized markers of inflammation and of cancer. They were determined on the basis of optical density using specialized kits. β-Catenin was determined by ELISA (Catenin Enzyme Immunoassay Kit, Assay designs, Ann Arbor, Mich.) following the manufacturer's instructions. The protein NF-κB p65 was determined by another ELISA assay (TrasAM NF-κB p65 nuclear DNA based ELISA, Active Motif, Rixensart, Belgium) following the manufacturer's instructions. The values obtained, presented in the diagram in FIG. 2, are expressed relative to the total amount of proteins extracted from the cell nucleus.

NF-κB p65 = test: ELISA of NF-κB p65 in the nucleus of pulmonary cells of mice after CO2 inhalation; type: in vivo; conditions: inhaled air with CO2 content above 10%, without decrease in oxygen, versus atmospheric air
Method: as §1, §2

BALB/c mice [2] = conditions: CO2 of tobacco smoke selectively trapped by the filter, 38 minutes inhalation
Method: The experiment was conducted on BALB/c mice aged from 6 to 7 weeks under in vivo conditions. The number of mice used was 32 males, divided into four groups of eight. […] Each experiment lasted 38 minutes, or typically the equivalent of the consumption of 5 cigarettes by a smoker.
The mice were sacrificed after inhalation of air for 38 minutes in the four situations described above (see also the commentary of FIG. 3) and the lungs were removed immediately for analysis.
The lungs were analysed in order to measure the activity or the secretion of six proteins that are known markers of inflammation. […] These proteins are as follows: RANTES, IL-6, TNF-alpha, MIP-2, PP2A and NE-κB p65. […] Measurements of activity or of relative concentration of these proteins were performed using the following commercial kits: Mouse TNF-alpha/TNFSF1A DuoSet (ELISA assay for the concentration of TNF-alpha); Mouse CXCL2/MIP-2 DuoSet (ELISA assay for the concentration of MIP-2), Mouse CCL5/RANTES ELISpot Kit (ELISpot assay for the secretion of RANTES); Mouse IL-6 ELISpot Kit (ELISpot assay for the secretion of IL-6), all from R&D Systems (Minneapolis, Minn., USA).

Compound	Penh value, level relative to control (BALB/c mice [1]; 15% CO2 in inhaled air at constant proportion of oxygen, versus atmospheric air control) [times]	Change of Penh value (BALB/c mice [1]; proportion of CO2 changes from 10 to 15%)	Expression of β-catenin in lung tissues (β-catenin)	Expression of NF-κBp65 in lung tissues (NF-κB p65)	Inflammation found in mice exposed to tobacco smoke (BALB/c mice [2])
O=C=O [CO2, carbon dioxide]	6	doubled	very significant increase	very significant increase	–
[K+].[OH-] [KOH solution, potassium hydroxide]	–	–	–	–	eliminated partially or even completely
